Reference: patent publication US7566699B2, “Fused heterocyclic derivative, medicinal composition containing the same, and medicinal use thereof” (Kissei Pharmaceutical Co., Ltd., priority 2003, dated 2009)

Experiments:
human SGLT1 = biological target: T1, human SGLT1 (Homo sapiens, UniProt P13866); test: Assay for inhibitory effects on human SGLT1 activity (uptake of methyl-α-D-glucopyranoside); format: cell-based; conditions: inhibition of uptake of 14C-labeled methyl-α-D-glucopyranoside (1 mM) in CS1-5-11D cells stably expressing human SGLT1, 37° C., 1 hour
T1 construct: expressed in transfected cells
T1 sequence (P13866 1-664): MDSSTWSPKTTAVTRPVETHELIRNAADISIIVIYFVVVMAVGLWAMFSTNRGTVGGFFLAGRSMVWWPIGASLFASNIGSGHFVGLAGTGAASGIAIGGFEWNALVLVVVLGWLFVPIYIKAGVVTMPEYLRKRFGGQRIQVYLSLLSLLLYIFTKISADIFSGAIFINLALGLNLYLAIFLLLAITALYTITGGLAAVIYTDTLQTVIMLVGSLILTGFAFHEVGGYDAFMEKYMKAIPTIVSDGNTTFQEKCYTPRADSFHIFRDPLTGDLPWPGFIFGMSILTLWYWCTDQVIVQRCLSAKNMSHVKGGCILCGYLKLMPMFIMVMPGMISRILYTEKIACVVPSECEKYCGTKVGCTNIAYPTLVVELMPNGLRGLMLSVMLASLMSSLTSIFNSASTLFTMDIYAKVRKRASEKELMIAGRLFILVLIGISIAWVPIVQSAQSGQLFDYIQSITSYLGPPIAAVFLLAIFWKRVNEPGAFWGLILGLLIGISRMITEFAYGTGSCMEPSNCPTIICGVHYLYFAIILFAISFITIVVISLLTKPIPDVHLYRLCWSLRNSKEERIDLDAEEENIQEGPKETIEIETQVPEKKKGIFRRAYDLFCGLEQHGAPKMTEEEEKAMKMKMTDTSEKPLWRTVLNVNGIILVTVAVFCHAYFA
Protocol: Assay for Inhibitory Effects on Human SGLT1 Activity
1) Cloning and Construction of the Vector Expressing Human SGLT1
(§1) The cDNA library was prepared for PCR amplification by reverse transcription from total RNA deprived from human small intestine (Ori gene) using oligo-dT as a primer. Using this cDNA library as a template, the DNA fragment coding 1 to 2005 bp of human SGLT1 (ACCESSION: M24847), which was reported by Hediger et al., was amplified by PCR method and inserted into the multi-cloning site of pcDNA3.1(−) (Invitrogen). The DNA sequence inserted was perfectly matched to the previously reported sequence.
2) Establishment of Cell Line Stably Expressing Human SGLT1
The expression vector of human SGLT1 was digested by Sca I into a linear DNA. The linear DNA was transfected into […] cells by means of lipofection (Effectene Transfection Reagent: QIAGEN). Neomycin resistant cell lines were selected by culture in the medium containing G418 (1 mg/mL, LIFE TECHNOLOGIES), and then the activity against the uptake of methyl-αD-glucopyranoside was measured by the method described below. […] CS1-5-11D cells were cultured in the presence of G418 at 200 μg/mL. […]
CS1-5-11D cells were seeded into a 96-well culture plate at a density of 3×10^4 cells/well and cultured for 2 days, and were used in the uptake assay. […] Radioactivity was measured by means of micro-scintillation counter TopCount (Packard). […]

human SGLT2 = biological target: T2, human SGLT2 (Homo sapiens, UniProt P31639); test: Assay for inhibitory effects on human SGLT2 activity (uptake of methyl-α-D-glucopyranoside); format: cell-based; conditions: inhibition of uptake of 14C-labeled methyl-α-D-glucopyranoside (1 mM) in CS2-5E cells (CHO-K1) stably expressing human SGLT2, 37° C., 1 hour
T2 construct: expressed in transfected cells
T2 sequence (P31639 1-672): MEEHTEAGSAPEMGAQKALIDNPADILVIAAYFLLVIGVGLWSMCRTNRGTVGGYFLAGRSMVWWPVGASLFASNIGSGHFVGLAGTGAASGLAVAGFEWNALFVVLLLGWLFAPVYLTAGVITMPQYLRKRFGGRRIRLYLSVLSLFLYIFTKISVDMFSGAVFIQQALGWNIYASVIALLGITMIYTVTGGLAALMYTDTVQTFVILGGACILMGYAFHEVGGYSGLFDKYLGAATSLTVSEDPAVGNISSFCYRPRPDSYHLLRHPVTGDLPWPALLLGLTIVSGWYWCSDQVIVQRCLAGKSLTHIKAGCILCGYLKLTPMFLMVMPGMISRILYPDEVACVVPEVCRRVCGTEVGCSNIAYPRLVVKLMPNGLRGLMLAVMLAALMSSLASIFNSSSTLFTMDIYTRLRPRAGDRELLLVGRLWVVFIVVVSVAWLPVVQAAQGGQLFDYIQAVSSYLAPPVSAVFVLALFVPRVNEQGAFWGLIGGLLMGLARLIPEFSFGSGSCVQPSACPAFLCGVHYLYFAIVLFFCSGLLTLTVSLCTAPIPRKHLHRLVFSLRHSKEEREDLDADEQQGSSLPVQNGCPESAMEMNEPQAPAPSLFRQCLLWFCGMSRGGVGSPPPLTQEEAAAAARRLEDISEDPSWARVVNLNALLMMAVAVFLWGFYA
Protocol: Assay for Inhibitory Effects on Human SGLT2 Activity
1) Cloning and Construction of the Vector Expressing Human SGLT2
as §1, with “human kidney” for “human small intestine”, “coding 2” for “coding 1”, “to 2039” for “to 2005”, “human SGLT2” for “human SGLT1”, “(ACCESSION: M95549, M95299),” for “(ACCESSION: M24847),”, “by R. G. Wells” for “by Hediger”
2) Establishment of Cell Line Stably Expressing Human SGLT2
The expression vector of human SGLT2 was digested by Sca I into a linear DNA. The linear DNA was transfected into CHO-K1 cells by means of lipofection (Effectene Transfection Reagent: QIAGEN). Neomycin resistant cell lines were selected by culture in the medium containing G418 (1 mg/mL, LIFE TECHNOLOGIES), and then the activity against the uptake of methyl-α-D-glucopyranoside was measured by the method described below. […] CS2-5E cells were cultured in the presence of G418 at 200 μg/mL.
3) Measurement of the Inhibitory Activity Against the Uptake of Methyl-α-D-glucopyranoside (α-MG)
CS2-5E cells were seeded into a 96-well culture plate at a density of 3×10^4 cells/well and cultured for 2 days, and were used in the uptake assay. A mixture of non-labeled (Sigma) and ^14C-labeled α-MG (Amersham Pharmacia Biotech) was added to the uptake buffer (pH 7.4; containing 140 mM sodium chloride, 2 mM potassium chloride, 1 mM calcium chloride, 1 mM magnesium chloride, 10 mM 2-[4-(2-hydroxyethyl)-1-piperazinyl]ethane sulfonic acid and 5 mM tris(hydroxymethyl)aminomethane) at the final concentration of 1 mM. […] Radioactivity was measured by means of micro-scintillation counter TopCount (Packard). One hundred % was set to the difference between the uptake in the control group and the basal uptake, and the uptake of methyl α-D-glucopyranoside at each drug concentration were calculated. […]

Row | IC50 (human SGLT1) | IC50 (human SGLT2) | Compound
1 | 25 nM |  | OC[C@H]1O[C@@H](Oc2cccc3occ(CCc4ccc(OCCCNC(CO)(CO)CO)cc4)c23)[C@H](O)[C@@H](O)[C@@H]1O [Example 24, 4-(β-D-Glucopyranosyloxy)-3-[2-(4-{3-[2-hydroxy-1,1-bis(hydroxymethyl)ethylamino]propoxy}phenyl)ethyl]benzofuran]
2 |  | 6 nM | OC[C@H]1O[C@@H](Oc2cccc3occ(CCc4ccccc4)c23)[C@H](O)[C@@H](O)[C@@H]1O [Example 2, 4-(β-D-Glucopyranosyloxy)-3-(2-phenylethyl)benzofuran]
3 |  | 12 nM | OC[C@H]1O[C@@H](Oc2cccc3occ(CCc4ccncc4)c23)[C@H](O)[C@@H](O)[C@@H]1O [Example 43, 4-(β-D-Glucopyranosyloxy)-3-[2-(4-pyridyl)ethyl]benzofuran]
4 | 15 nM |  | OC[C@H]1O[C@@H](Oc2cc(O)cc3occ(CCc4ccccc4)c23)[C@H](O)[C@@H](O)[C@@H]1O [Example 7, 4-(β-D-Glucopyranosyloxy)-6-hydroxy-3-(2-phenylethyl)benzofuran]
5 |  | 41 nM | Cc1ccccc1CCc1coc2cccc(O[C@@H]3O[C@H](CO)[C@@H](O)[C@H](O)[C@H]3O)c12 [Example 3, 4-(β-D-Glucopyranosyloxy)-3-[2-(2-methylphenyl)ethyl]-benzofuran]
